In patent US8513230B2, “Nuclear transport modulators and uses thereof” (Karyopharm Therapeutics, Inc., priority 2010, dated 2013):

Columns and labels:
Crm1 = biological target: T1, Crm1 (Homo sapiens, UniProt O14980); experiment: Rev-GFP nuclear export inhibition assay (U2OS-RevGFP cells); assay type: cell-based; conditions: ~1 hr incubation with compound, read-out: Rev Export (%)/[IC50] OR Cytotoxicity[EC50]
T1 construct: endogenous in cells; host or cells: U2OS-RevGFP cells
Procedure: The evaluation of the affinity of compounds for the Crm1 protein was determined in the RevGFP assay.
Experimental protocol: Rev is a protein from human immunodeficiency virus type 1 (HIV-1) and contains a nuclear export signal (NES) in its C-terminal domain and a nuclear localization signal (NLS) in its N-terminal domain. Nuclear export of Rev protein is dependent on the classical NES/Crm1 pathway (Neville et al, 1997). Nuclear accumulation of Rev can be observed in cells treated with specific inhibitors of Crm1, such as LMB (Kau et al, 2003). In this assay, U2OS-RevGFP cells are seeded onto clear-bottom, black, 384-well plates the day before the experiment. Compounds are serially diluted 1:2 starting from 40 μM in a separate 384-well plate in DMEM, and then transferred onto cells. Cells are incubated with compound for ˜1 hr before fixation with 3.7% formaldehyde and nuclei staining with Hoechst 33258. The amount of GFP in cell nuclei will be measured and compound IC50s determined (Kau et al, 2003).

[1] = system: Human myeloma cell lines (H929); experiment: Combination study with doxorubicin, apoptosis by anti-caspase-3 assay; assay type: cell-based; conditions: H929 cells, compound 16 hrs then doxorubicin 2 umol/L for 4 h
Procedure: Combinations studies with doxorubicin. Human myeloma cell lines (H929) grown at 2×10^6 cells/mL (high density) were incubated with and without Example 1 for 16 h followed by doxorubicin (2 umol/L; Sigma) for 4 h and assayed for apoptosis by anti-caspase-3 assay (BD Pharmingen).

[2] = system: MM.1S, MM.1R, Jurkat and HS-Sultan cells; experiment: Isobologram analysis of the interaction with Bortezomib; assay type: cell-based
Procedure: The MTT cell proliferation assay was used to study the cytotoxic properties of the compounds. The assay was performed according to the method described by Roche Molecular Biochemicals with minor modifications. The assay is based on the cleavage of the tetrazolium salt, MTT, in the presence of an electron-coupling reagent. The water-insoluble formazan salt produced must be solubilized in an additional step. Cells, grown in a 96-well tissue culture plate, are incubated with the MTT solution for approximately 4 hours. After this incubation period, a water-insoluble formazan dye is formed. After solubilization, the formazan dye is quantitated using a scanning multi-well spectrophotometer (ELISA reader). […] The cells were seeded at 1.5×10^4 cells in each well of 96-well plate in 200 μL of fresh culture medium and were allowed to attach for overnight. The stock solutions of the compounds were diluted in cell culture medium to obtain eight concentrations of each drug, ranging from 1 nM to 20 μM. After 72 h of treatment the medium was aspirated and the cells were washed once with sterile 1×PBS. […]
Tumor cells were assayed for viability in the absence or presence of drug/control treatments, and drug combination dose response studies were analyzed graphically by correlating the fraction of surviving cells with drug concentrations for each drug.r

[3] = system: panel of ~570 solid and hematologic cancer cell lines; experiment: Cytotoxicity assay (CellTiter 96 AQueous One Solution, MTS) in cancer cell line panel; assay type: cell-based; conditions: 72 hours exposure, IC50 determined by MTS assay
Procedure: Cytotoxicity Assay (CellTiter 96® AQueous One Solution Cell Proliferation Assay) Cells were seeded into 96-well plates and compounds at the indicated concentrations were added to the cells after overnight incubation. Seventy two hrs later the proliferation assay was done in the following way: Twenty microliters of CellTiter 96® AQueous One Solution Reagent was added into each well. After 1 hour at 37° C. in a humidified, 5% CO2 atmosphere, the absorbance at 490 nm was recorded using an ELISA plate reader. Test compound was assayed in numerous cancer cell lines using the above assay protocol. Results are depicted in FIG. 3.

normal cells = experiment: Cytotoxicity assay (MTS), normal cells; assay type: cell-based; conditions: 72 hours exposure
MM1.S xenografts = experiment: MM1.S xenograft growth; assay type: in vivo
Procedure: FIG. 4 presents activity data for Example 1 (KPT-0127) administered at 150 mg/kg QD×5. […] (A) MM1.S cells were grown as xenografts to 130 mm^3 (small) or (B) 1350 mm^3 (large) sizes and were treated with KPT-0127 SC or dexamethasone IP daily×5 and growth was assessed. Treatment of large xenografts is ongoing (data shown after 5 doses of KPT-0127).

HCT-116 xenografts = experiment: HCT-116 xenograft growth and tolerability; assay type: in vivo
Procedure: FIG. 5 presents activity data for Example 1 (KPT-127) administered at 150 mg/kg QD×7. […] HCT-116 xenografts were grown to ˜150 mm^3 and low dose KPT-0127 administered. On day 9, when the tumors were ˜350 mm^3, KPT-127 dose was escalated to 150 mg/kg sc daily. Irinotecan was used as a control.

T1 sequence (O14980 whole entry): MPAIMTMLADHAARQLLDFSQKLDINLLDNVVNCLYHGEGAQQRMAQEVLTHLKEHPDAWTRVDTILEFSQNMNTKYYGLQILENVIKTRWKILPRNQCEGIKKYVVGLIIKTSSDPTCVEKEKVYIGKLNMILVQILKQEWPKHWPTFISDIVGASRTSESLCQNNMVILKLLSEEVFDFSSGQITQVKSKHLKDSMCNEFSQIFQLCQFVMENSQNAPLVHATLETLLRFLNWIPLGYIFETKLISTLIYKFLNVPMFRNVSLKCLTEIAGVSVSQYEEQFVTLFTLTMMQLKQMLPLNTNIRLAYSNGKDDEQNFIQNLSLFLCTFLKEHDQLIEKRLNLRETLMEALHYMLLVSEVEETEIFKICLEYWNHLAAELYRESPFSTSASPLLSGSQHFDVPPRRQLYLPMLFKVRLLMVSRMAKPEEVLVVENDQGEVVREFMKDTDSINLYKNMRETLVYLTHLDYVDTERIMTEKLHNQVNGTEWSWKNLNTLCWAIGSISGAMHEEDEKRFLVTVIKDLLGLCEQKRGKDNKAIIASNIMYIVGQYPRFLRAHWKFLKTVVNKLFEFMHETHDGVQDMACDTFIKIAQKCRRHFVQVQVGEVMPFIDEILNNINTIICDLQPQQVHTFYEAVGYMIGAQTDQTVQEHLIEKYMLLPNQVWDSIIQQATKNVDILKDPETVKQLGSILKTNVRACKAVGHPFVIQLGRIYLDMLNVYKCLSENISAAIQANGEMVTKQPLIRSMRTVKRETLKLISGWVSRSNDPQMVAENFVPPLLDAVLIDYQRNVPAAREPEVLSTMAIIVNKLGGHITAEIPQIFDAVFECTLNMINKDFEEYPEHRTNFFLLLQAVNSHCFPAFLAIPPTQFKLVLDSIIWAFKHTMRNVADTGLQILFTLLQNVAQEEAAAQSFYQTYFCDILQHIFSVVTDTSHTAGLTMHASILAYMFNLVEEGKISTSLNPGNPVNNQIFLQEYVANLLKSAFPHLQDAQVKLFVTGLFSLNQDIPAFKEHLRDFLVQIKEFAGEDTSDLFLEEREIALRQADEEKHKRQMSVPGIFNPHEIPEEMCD

## CC(C)OC(=O)/C=C\n1cnc(-c2cc(C(F)(F)F)cc(S(C)(=O)=O)c2)n1 [Example 67, (Z)-isopropyl 3-(3-(3-(methylsulfonyl)-5-(trifluoromethyl)phenyl)-1H-1,2,4-triazol-1-yl)acrylate]
Crm1
  IC50: < 1 µM

## CC(C)OC(=O)/C=C\n1cnc(-c2cccc(Cl)c2)n1 [Example 1, (Z)-3-[3-(3-Chloro-phenyl)-[1,2,4]-triazol-1-yl]-acrylic acid isopropyl ester]
[1]
  sensitization to Topo II inhibitor Doxorubicin (apoptosis): sensitizes non-Cyclin resistant Myeloma H929 cells to Topo II inhibitor Doxorubicin
[2]
  interaction with Bortezomib (isobologram analysis): synergistic interactions with Bortezomib
[3]
  cytotoxicity in hematologic and solid tumor cell lines: potent and selective cytotoxicity
Normal cells
  effect on normal cells: minimal effect on normal cells
MM1.S xenografts; 150 mg/kg QD×5 SC, xenografts grown to 130 mm^3
  growth of small MM1.S xenografts: inhibits growth
MM1.S xenografts; 150 mg/kg SC, xenografts 1300 mm^3, data after 5 doses, treatment ongoing
  growth of large MM1.S xenografts: inhibits growth
HCT-116 xenografts; 150 mg/kg QD×7, low dose from ~150 mm^3, escalated on day 9 (~350 mm^3) to 150 mg/kg sc daily
  growth of moderate HCT-116 xenografts: inhibits moderate HCT-116 xenografts
HCT-116 xenografts; 150 mg/kg sc daily
  tolerability: well tolerated
HCT-116 xenografts; HCT-116 xenograft study
  clinical chemistries and CBCs: not significantly affected

## CCOC(=O)/C=C\n1cnc(-c2cc(F)cc(Cl)c2)n1 [Example 82, 3-[3-(3-Chloro-5-fluoro-phenyl)-[1,2,4]triazol-1-yl]-acrylic acid ethyl ester]
Crm1
  IC50: 1 to 10 µM

## CC(C)N(C)C(=O)/C=C\c1n[nH]c(-c2cccc(Cl)c2)n1 [Example 95, 3-[5-(3-Chloro-phenyl)-1H-[1,2,4]triazol-3-yl]-N-isopropyl-N-methyl-acrylamide]
Crm1
  IC50: > 10 µM
